From US5154929A, “Percutaneous absorption type preparation and process for preparing the same” (Nitto Denko Corporation, priority 1988, dated 1992)

Test: Saturated solubility of the drug in the pressure-sensitive adhesive

CN1C(=O)CN=C(c2ccccc2F)c2cc([N+](=O)[O-])ccc21 [Flunitrazepam]
Saturated Solubility (in adhesive of Comparative Example 3 (nonylacrylate 75, ethoxyethylacrylate 15, vinyl acetate 10)): 3.5% | Saturated Solubility (in adhesive of Comparative Example 4 (nonylacrylate 60, ethoxyethylacrylate 20, vinyl acetate 20)): 4% | Saturated Solubility (in adhesive of Example 3 (nonylacrylate 75, ethoxyethylacrylate 15, vinyl acetate 10)): 3.5%

CC(C)NCC(O)COc1cccc2[nH]ccc12 (stereo not drawn) [Pindolol]
Saturated Solubility (in adhesive of Comparative Example 5 (2-ethylhexylacrylate 85, N-vinyl-2-pyrrolidone 15)): 7% | Saturated Solubility (in adhesive of Comparative Example 6 (2-ethylhexylacrylate 75, N-vinyl-2-pyrrolidone 25)): 6% | Saturated Solubility (in adhesive of Example 4 (2-ethylhexylacrylate 85, N-vinyl-2-pyrrolidone 15)): 7%
